Measurements as given in US20240294509A1, “PYRIDAZINONE COMPOUND AS PARP7 INHIBITOR” (Euregen Biopharma Co., Ltd., priority 2021, published 2024).
One block for each compound: values may come before it.

What was measured:
PARP7 = PARP7 (Homo sapiens (Human), UniProt Q7Z3E1)
Experimental: (§5) Experimental Principle: The inhibitory effect of the test substance on the enzymatic activity of PARP1/7 is assessed by using an Enzyme-Linked Immunosorbent Assay (ELISA).
(§6) (1) Pre-coating: Add 100 μL of a PBS buffer (10 mM NaH2PO4, 10 mM Na2HPO4, 150 mM NaCl, pH 7.4) containing 20 g/mL of histone to each well of a 96-well plate, and incubate at 4° C. overnight.
(§7) (3) Add 5 μL of the test substance or solvent to each well.
(§8) (4) Add 20 μL of(PARP1 or PARP7 (50 ng/well), and incubate at 30° C. for 1 hour.
(§9) (5) Add 50 μL of streptavidin-HRP to the reaction mixture, and incubate at 30° C. for 30 minutes.
(§10) (6) Finally, add 100 μL of a citrate buffer containing H2O2 and luminol (0.1 M, pH 5.4), and measure the luminescent signal using a microplate reader (Molecular Devices SpectraMax M5).
(§11) (7) Calculate the inhibition rate of PARP1 or PARP7 enzyme activity as [(control group−treatment group)/control group]×10000. Fit the dose-response data with standard dilutions using Prism GraphPad software and calculate the concentration required to achieve 5000 inhibition of PARP1 or PARP7 enzyme activity (IC50).

PARP1 = PARP1 (Homo sapiens (Human), UniProt P09874)
Experimental: as §5, §6, §7, §8, §9, §10, §11

NCI-H1373 cells = experiment: Inhibitory effect on the proliferation of NCI-H1373 cells (CellTiter-Glo); assay type: cell-based; settings: Homo sapiens, 144 h, 6 days treatment
From the text: 1. Experimental Principle: NCI-H1373 cells are a type of lung adenocarcinoma cells that overexpress PARP7.
2. Experimental Materials: NCI-H1373 cells were obtained from Nanjing Cobioer Biosciences Co., Ltd. CellTiter-Glo® (cell viability chemiluminescent assay reagent) was purchased from Promega (Catalog No. G7571). RPMI-1640 medium was obtained from ATCC (Catalog No. 30-2001). RPMI-1640 medium, penicillin/streptomycin antibiotics were purchased from WISENT. Fetal bovine serum was obtained from Biosera. The Nivo multimode reader was procured from PerkinElmer.
3. Experimental Method: NCI-H1373 cells were seeded in a white 96-well plate with 80 μL of cell suspension per well, containing 3000 NCI-H1373 cells. The cell plate was incubated overnight in a carbon dioxide (CO2) incubator.
The test compounds were serially diluted 5-fold to the 9th concentration, ranging from 2 mmol/L to 5.12 nmol/L, for a duplicate assay. 78 μL of culture medium was added to the intermediate plate, and then, according to the corresponding positions, 2 μL of each gradient-diluted compound was transferred to the intermediate plate. After thorough mixing, 20 μL of the compound solution was transferred to the cell plate. The compound concentration range in the cell plate ranged from 10 μmol/L to 0.0256 nmol/L. The cell plate was incubated in a CO2 incubator for 6 days.
Another cell plate was prepared, and the signal values were read on the day of dosing to obtain the maximum value referred to as Max in the following equation for data analysis. 25 μL of cell viability chemiluminescent assay reagent was added to each well of this cell plate, and it was incubated at room temperature for 10 minutes to stabilize the luminescent signal. Readings were taken using a multimode reader.
After 6 days of treatment, 25 μL of cell viability chemiluminescent assay reagent was added to each well of the cell plate, and it was incubated at room temperature for 10 minutes to stabilize the luminescent signal. Readings were taken using a multimode reader.
The IC50 value was determined by four-parameter curve fitting (obtained by using the “log(inhibitor) vs. response—Variable slope” model in GraphPad Prism).

[1] = Pharmacokinetic properties in SD rats after single intravenous injection and oral administration; assay type: in vivo; settings: SD male rats; for F: oral bioavailability; for AUC(0-inf) / Cmax / clearance / half-life: rat, plasma
From the text: 1. Test purpose: to determine the pharmacokinetic characteristics of some of the example compound of the present invention in SD rats after single intravenous injection(IV) and oral administration(PO) by LC-MS/MS method.
2. Test material: the test drug is self-made from the example compounds of the present invention; Positive control compound RBN2397 purchased from Shanghai BioChemPartner Biotechnology Co., Ltd. SD male rats were obtained from the Laboratory Animal Management Department of Shanghai Family Planning Research Institute. Animal production license number (SCXK (Shanghai) 2018-0006).
Preparation of 0.5% methyl cellulose: 5 g of methyl cellulose were weighed and dissolved in 1000 mL of purified water.
Preparation of oral formulation: A required amount of test compound was weighed and dissolved in 0.5% methyl cellulose solution to obtain a suspension or solution of 0.5 mg/mL or 1.0 mg/mL.
Preparation of intravenous injection formulation: A required amount of test compound was weighed, and dissolved in 0.5 mL of dimethyl sulfoxide to prepare a solution of 4 mg/mL. 0.25 mL of the above solution was added into 0.5 mL of polyethylene glycol 15 hydroxystearate (solutol) and 4.25 mL of physiological saline to obtain a solution of 0.2 mg/mL.
Administration: SD male rats were orally administered (PO) after fasting overnight, and fed 4 hours after administration.
Sample Collection: blood was collected through jugular vein or other suitable vein, and 0.2 mL of blood was collected at each time point. Samples were placed into tubes containing ethylenediamine tetraacetic acid dipotassium salt and kept on ice before centrifugation. Within 1 hour after blood collection, the blood samples were centrifuged at 2-8° C. and 6800 g for 6 minutes and stored at −80° C. The time point for blood collection was 0.083, 0.25, 0.5, 1, 2, 4, 8 and 24 hours after intravenous administration, and 0.25, 0.5, 1, 2, 4, 6, 8 and 24 hours after oral administration.
The intravenous dosage was 1 mg/kg, and the pharmacokinetic parameters for oral administration were standardized to a 1 mg/kg dose.

[2] = Metabolic stability in human liver microsomes; assay type: in vitro ADME; settings: pH 7.4, 1.00 μM compound, 0.5 mg/mL protein, read-out: intrinsic clearance, Clint
Experimental: (§1) 1. Experiment purpose: This study aims to determine the metabolic stability of selected compounds from the embodiments of the invention in liver microsomes of humans, dogs, monkeys, rats, and mice using the LC-MS/MS method.
(§2) Test compounds: The test drug is self-made from the example compounds of the present invention; Positive control compound RBN2397 purchased from Shanghai BioChemPartner Biotechnology Co., Ltd.
(§3) Liver microsomes obtained from Xenotech.
(§4) The incubation was carried out at 37° C. in a CO2 incubator. The reactions were terminated by adding 150 μL of cold acetonitrile at different time points (0, 5, 15, 30, and 45 minutes). The 96-well plate was shaken at 600 rpm for 10 minutes, followed by centrifugation at 6000 rpm for 15 minutes. The supernatant (80 μL) was mixed with 140 μL of pure water, and the remaining amount of the compound was determined using LC-MS/MS. The intrinsic clearance (Clint) was calculated using the formula Clint=k/liver microsomes protein concentration, where “k” is the linear regression slope of log compound remaining percentage against incubation time.

[3] = Metabolic stability in dog liver microsomes; assay type: in vitro ADME; settings: pH 7.4, 1.00 μM compound, 0.5 mg/mL protein, read-out: intrinsic clearance, Clint
Experimental: as §1, §2, §3, §4

[4] = Metabolic stability in rat liver microsomes; assay type: in vitro ADME; settings: pH 7.4, 1.00 μM compound, 0.5 mg/mL protein, read-out: intrinsic clearance, Clint
Experimental: as §1, §2, §3, §4

[5] = Oral gavage, standardized to a 1 mg/kg dose

Chain of PARP1 (P09874 whole entry): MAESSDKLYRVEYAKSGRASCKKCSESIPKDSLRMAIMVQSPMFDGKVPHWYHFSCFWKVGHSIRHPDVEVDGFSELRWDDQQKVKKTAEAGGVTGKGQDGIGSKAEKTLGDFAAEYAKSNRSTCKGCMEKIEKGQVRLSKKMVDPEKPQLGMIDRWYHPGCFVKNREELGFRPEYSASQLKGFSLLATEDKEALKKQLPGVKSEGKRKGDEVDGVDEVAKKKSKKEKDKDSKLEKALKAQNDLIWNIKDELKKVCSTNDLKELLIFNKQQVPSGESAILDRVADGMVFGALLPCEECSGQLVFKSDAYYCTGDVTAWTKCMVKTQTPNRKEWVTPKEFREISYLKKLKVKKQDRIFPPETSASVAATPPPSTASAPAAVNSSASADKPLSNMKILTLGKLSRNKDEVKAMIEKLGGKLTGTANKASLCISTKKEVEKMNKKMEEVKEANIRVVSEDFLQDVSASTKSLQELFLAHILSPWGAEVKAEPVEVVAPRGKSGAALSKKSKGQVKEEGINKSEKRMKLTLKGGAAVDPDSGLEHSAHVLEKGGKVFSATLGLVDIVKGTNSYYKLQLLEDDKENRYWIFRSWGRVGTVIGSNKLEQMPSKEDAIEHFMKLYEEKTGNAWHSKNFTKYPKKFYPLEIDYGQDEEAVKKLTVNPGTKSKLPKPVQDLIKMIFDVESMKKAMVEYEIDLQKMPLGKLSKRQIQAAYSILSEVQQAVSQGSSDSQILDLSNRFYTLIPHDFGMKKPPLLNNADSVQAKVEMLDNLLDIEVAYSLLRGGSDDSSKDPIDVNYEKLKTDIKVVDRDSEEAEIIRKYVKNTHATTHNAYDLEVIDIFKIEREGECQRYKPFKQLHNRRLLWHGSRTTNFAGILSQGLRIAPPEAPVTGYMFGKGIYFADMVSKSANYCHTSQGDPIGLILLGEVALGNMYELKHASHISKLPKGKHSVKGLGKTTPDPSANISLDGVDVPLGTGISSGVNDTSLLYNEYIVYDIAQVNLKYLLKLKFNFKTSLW
Chain of PARP7 (Q7Z3E1 whole entry): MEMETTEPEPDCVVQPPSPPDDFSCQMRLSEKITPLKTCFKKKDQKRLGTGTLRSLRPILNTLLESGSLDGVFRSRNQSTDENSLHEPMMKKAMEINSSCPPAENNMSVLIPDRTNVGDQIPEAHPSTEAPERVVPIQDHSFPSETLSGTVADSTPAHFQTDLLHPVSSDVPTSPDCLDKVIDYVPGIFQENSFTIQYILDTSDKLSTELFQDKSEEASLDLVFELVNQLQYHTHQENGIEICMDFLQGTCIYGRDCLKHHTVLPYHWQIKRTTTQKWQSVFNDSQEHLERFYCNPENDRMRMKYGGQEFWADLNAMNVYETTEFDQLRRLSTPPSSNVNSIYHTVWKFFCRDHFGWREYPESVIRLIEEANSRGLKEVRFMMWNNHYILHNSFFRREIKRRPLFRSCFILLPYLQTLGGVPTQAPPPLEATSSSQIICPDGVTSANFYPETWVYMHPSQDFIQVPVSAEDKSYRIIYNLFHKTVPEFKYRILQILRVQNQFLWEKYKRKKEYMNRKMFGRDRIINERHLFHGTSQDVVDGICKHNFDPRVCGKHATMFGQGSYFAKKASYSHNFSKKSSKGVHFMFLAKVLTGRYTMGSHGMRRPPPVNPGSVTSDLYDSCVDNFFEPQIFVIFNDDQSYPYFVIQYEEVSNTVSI

SMILES: C[C@H]1CC(CCC(=O)N2CCN(c3ncc(C(F)(F)F)cn3)CC2)N(c2cc(C(F)(F)F)c(=O)[nH]n2)C1 (stereo partly drawn) [Compound 30]
IC50 (PARP7): 5.1 nM
IC50 (PARP1): 7.6 nM

SMILES: O=C(CC[C@@H]1CCCCN1c1cc(C(F)(F)F)c(=O)[nH]n1)N1CCN(c2ncc(C(F)(F)F)cn2)CC1 [Compound 22]
IC50 (PARP7): 4.6 nM
IC50 (PARP1): 31.6 nM

SMILES: CCO[C@H]1C[C@@H](CCC(=O)N2CCN(c3ncc(C(F)(F)F)cn3)CC2)N(c2cc(C(F)(F)F)c(=O)[nH]n2)C1 [Compound 36]
IC50 (PARP7): 3.8 nM
IC50 (PARP1): 14.4 nM

SMILES: O=C(CC[C@@H]1C[C@H](N2CCOCC2)CN1c1cc(C(F)(F)F)c(=O)[nH]n1)N1CCN(c2ncc(C(F)(F)F)cn2)CC1 [Compound 35]
IC50 (PARP7): 4.3 nM
IC50 (PARP1): 47 nM

SMILES: O=C(CC[C@@H]1C[C@@H]2CCC[C@@H]2N1c1cc(C(F)(F)F)c(=O)[nH]n1)N1CCN(c2ncc(C(F)(F)F)cn2)CC1 [Compound 24]
IC50 (PARP7): 2.1 nM
IC50 (PARP1): 4.1 nM

SMILES: C[C@@H](COCCC(=O)N1CCN(c2ncc(C(F)(F)F)cn2)CC1)Nc1cn[nH]c(=O)c1C(F)(F)F [RBN-2397, reference compound]
CLint scaled at 1 μM [2]: 88 mL/min/kg
CLint scaled at 1 μM [3]: 40.8 mL/min/kg
CLint scaled at 1 μM [4]: 144 mL/min/kg
F ([1]; Oral gavage): 3.76%
AUC(0-inf) ([1]; Intravenous injection, 1 mg/kg): 288 ng·h/mL
Cmax ([1]; Intravenous injection, 1 mg/kg): 634 ng/mL
clearance ([1]; Intravenous injection, 1 mg/kg): 58.1 mL/min/kg
half-life ([1]; Intravenous injection, 1 mg/kg): 20.4 min
AUC(0-inf) [1, 5]: 11.5 ng·h/mL
Cmax [1, 5]: 5.55 ng/mL

SMILES: O=C(CC[C@@H]1CC(F)(F)CN1c1cc(C(F)(F)F)c(=O)[nH]n1)N1CCN(c2ncc(C(F)(F)F)cn2)CC1 [Compound 23]
IC50 (PARP7): 3.2 nM
IC50 (PARP1): 9.7 nM

SMILES: CO[C@@H]1C[C@@H](CCC(=O)N2CCN(c3ncc(C(F)(F)F)cn3)CC2)N(c2cc(C(F)(F)F)c(=O)[nH]n2)C1 [Compound 44]
IC50 (PARP7): 7 nM
IC50 (PARP1): 18 nM

Results, then the compound that gave them:

IC50 (PARP7): 43 nM
IC50 (PARP1): 12000 nM
SMILES: O=C([C@@H]1C[C@H](Oc2ccccc2F)CN1c1cc(C(F)(F)F)c(=O)[nH]n1)N1CCN(c2ncc(C(F)(F)F)cn2)CC1 [Compound 67]

IC50 (NCI-H1373 cells): 12.4 nM
SMILES: O=C(CC[C@@H]1C[C@@H](Oc2cncnc2)CN1c1cc(C(F)(F)F)c(=O)[nH]n1)N1CCN(c2ncc(C(F)(F)F)cn2)CC1 [Compound 63]

IC50 (NCI-H1373 cells): 38 nM
F ([1]; Oral gavage): 21.97%
AUC(0-inf) ([1]; Intravenous injection, 1 mg/kg): 360 ng·h/mL
Cmax ([1]; Intravenous injection, 1 mg/kg): 720 ng/mL
clearance ([1]; Intravenous injection, 1 mg/kg): 46.9 mL/min/kg
half-life ([1]; Intravenous injection, 1 mg/kg): 34.8 min
AUC(0-inf) [1, 5]: 89.2 ng·h/mL
Cmax [1, 5]: 53.5 ng/mL
SMILES: O=C(COC[C@@H]1CCCN1c1cc(C(F)(F)F)c(=O)[nH]n1)N1CCN(c2ncc(C(F)(F)F)cn2)CC1 [Compound 1]

IC50 (PARP7): 4 nM
IC50 (PARP1): 427 nM
SMILES: O=C([C@@H]1C[C@H](Oc2ccccc2)CN1c1cc(C(F)(F)F)c(=O)[nH]n1)N1CCN(c2ncc(C(F)(F)F)cn2)CC1 [Compound 66]

F ([1]; Oral gavage): 14.34%
AUC(0-inf) ([1]; Intravenous injection, 1 mg/kg): 397 ng·h/mL
Cmax ([1]; Intravenous injection, 1 mg/kg): 477 ng/mL
clearance ([1]; Intravenous injection, 1 mg/kg): 42.2 mL/min/kg
half-life ([1]; Intravenous injection, 1 mg/kg): 40.8 min
AUC(0-inf) [1, 5]: 60.7 ng·h/mL
Cmax [1, 5]: 15.1 ng/mL
SMILES: O=C(CC[C@@H]1C[C@H](Oc2ccccc2)CN1c1cc(C(F)(F)F)c(=O)[nH]n1)N1CCN(c2ncc(C(F)(F)F)cn2)CC1 [Compound 19]

IC50 (NCI-H1373 cells): 44.6 nM
SMILES: CCO[C@@H]1C[C@@H](C(=O)N2CCN(c3ncc(C(F)(F)F)cn3)CC2)N(c2cc(C(F)(F)F)c(=O)[nH]n2)C1 [Compound 71]
